Results published in ChEMBL document CHEMBL1149721, “New Alkaloids from Haplophyllum tuberculatum” (J Nat Prod, 1992).
The source made the active and inactive calls. No cut-off for these calls is given here.

Tested on: Staphylococcus aureus
Test: Antimicrobial activity against Staphylococcus aureus at 100 ug/ml
Format: functional, organism-based

**Q.** For CC(=O)OC(C)(C)[C@@H]1CC[C@](C)([C@H](O)COc2ccc(CCNC(=O)c3ccccc3)cc2)O1, which Activity is on record?
**A.** Its Activity is “inactive”.

**Q.** COc1c2ccoc2nc2c(CC=C(C)C)c(O)ccc12 was tested. Which Activity did it give?
**A.** The Activity was “inactive”.

**Q.** Which Activity does the source give for CC(=O)O[C@@H](CC[C@]1(C)O[C@@H]1COc1ccc(CCNC(=O)c2ccccc2)cc1)C(C)(C)OC(C)=O here?
**A.** Its Activity is “inactive”.

**Q.** Which Activity does the source give for CC(=O)O[C@H](COc1ccc(CCNC(=O)c2ccccc2)cc1)[C@@]1(C)CC[C@@H](C(C)(C)OC(C)=O)O1 here?
**A.** The Activity was “inactive”.

**Q.** For CC(=O)O[C@@H](CC[C@]1(C)O[C@@H]1COc1ccc(CCNC(=O)C=C(C)C)cc1)C(C)(C)OC(C)=O, which Activity is on record?
**A.** Its Activity is “inactive”.
